Some test systems named below: LOX IMVI melanoma; NCI/ADR-RES ovarian; OVCAR-5 ovarian; SK-MEL-5 melanoma; TK-10 renal; A498 renal; HOP-62 NSCLC; SR leukemia; IGROV1 ovarian; NCI-H23 lung.
Common to all, as to assay: NCI anticancer screen, dose series, 48 h

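These data come from cells grown in 96-well plates and exposed to compound for 48 hours at five concentrations. GI50 marks 50% less growth. At the TGI there is no net growth.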

`O=C(NCCOCCOCCOCCNC(=O)c1cc2c(o1)C(=O)c1ccccc1C2=O)NC12CC3CC(CC(C3)C1)C2`: the GI50 in the assay with LOX IMVI melanoma was 843 nM; in the assay on NCI/ADR-RES ovarian, 2960 nM; in the assay on OVCAR-5 ovarian, 1830 nM; in the assay on SK-MEL-5 melanoma, 303 nM; in the assay on TK-10 renal, 3.68 µM; in the assay on A498 renal it was 1690 nM. Further, the GI50 was 2030 nM with HOP-62 NSCLC, 2370 nM with SR leukemia, 2110 nM with IGROV1 ovarian and 234 nM in the assay with NCI-H23 lung. Also, the TGI with LOX IMVI melanoma came out at 3.16 µM; in the assay on NCI/ADR-RES ovarian, 10.1 µM; in the assay with OVCAR-5 ovarian, 3.28 µM; with SK-MEL-5 melanoma, 1.02 µM; in the assay on TK-10 renal it was 7.24 µM; in the assay with A498 renal, 3.3 µM. Moreover, the TGI in the assay with HOP-62 NSCLC stood at 3.53 µM; with SR leukemia, 11.7 µM; in the assay on IGROV1 ovarian, 8.53 µM; in the assay with NCI-H23 lung it was 1.97 µM.
Take `Cc1nc2sc3c(N)ncnc3c2c(C)c1C`: the GI50 with LOX IMVI melanoma is > 25000 nM; in the assay on NCI/ADR-RES ovarian it was > 25000 nM; in the assay on OVCAR-5 ovarian, > 25000 nM; in the assay with SK-MEL-5 melanoma it was > 25000 nM; in the assay with TK-10 renal it was > 25 µM; with A498 renal, > 25000 nM. The GI50 with HOP-62 NSCLC, with SR leukemia, with IGROV1 ovarian and with NCI-H23 lung was > 25000 nM in each case. For the same compound, the TGI with LOX IMVI melanoma, with NCI/ADR-RES ovarian, with OVCAR-5 ovarian, with SK-MEL-5 melanoma, in the assay with TK-10 renal and in the assay on A498 renal was > 25 µM in each case. Besides, the TGI in the assay with HOP-62 NSCLC, with SR leukemia, in the assay on IGROV1 ovarian and in the assay on NCI-H23 lung was > 25 µM throughout.
On to `CC(=O)/C(Br)=C/c1ccc(Br)o1`, for which the GI50 in the assay with LOX IMVI melanoma is 4350 nM; in the assay with NCI/ADR-RES ovarian, 7880 nM; in the assay with OVCAR-5 ovarian, 13700 nM; in the assay on SK-MEL-5 melanoma, 10300 nM; in the assay with TK-10 renal it was 5.42 µM; with A498 renal, 17400 nM. Further, the GI50 in the assay on HOP-62 NSCLC was 24600 nM; in the assay with SR leukemia, 1720 nM; with IGROV1 ovarian, 10200 nM; with NCI-H23 lung it was 12100 nM. For the same compound, the TGI came to 14.9 µM with LOX IMVI melanoma; 38.3 µM in the assay on NCI/ADR-RES ovarian; 34.4 µM in the assay on OVCAR-5 ovarian; 22.6 µM in the assay with SK-MEL-5 melanoma; 17.9 µM with TK-10 renal; 33.7 µM with A498 renal. The TGI worked out at 59.2 µM with HOP-62 NSCLC, 5.42 µM in the assay with SR leukemia, 29.2 µM in the assay on IGROV1 ovarian and 41.7 µM in the assay on NCI-H23 lung.
In the case of `CCCCCCCCCCCCN=C(N)c1ccc(N2CCN(c3ccc(C(N)=NCCCCCCCCCCCC)cc3)CC2)cc1`, the GI50 is 12000 nM in the assay with LOX IMVI melanoma; 33300 nM with NCI/ADR-RES ovarian; 7160 nM in the assay on OVCAR-5 ovarian; 10500 nM with SK-MEL-5 melanoma; 13.2 µM in the assay on TK-10 renal; 6960 nM in the assay on HOP-62 NSCLC. Also, the GI50 in the assay with SR leukemia is 3800 nM; in the assay with NCI-H23 lung, 6200 nM. In addition, the TGI in the assay with LOX IMVI melanoma was 23 µM; in the assay on NCI/ADR-RES ovarian, > 50 µM; with OVCAR-5 ovarian it was 14.3 µM; with SK-MEL-5 melanoma it was 21.1 µM; with TK-10 renal, > 50 µM; in the assay on HOP-62 NSCLC, 14.6 µM. The TGI with SR leukemia is > 50 µM; in the assay on NCI-H23 lung, 15.1 µM.
In the case of `COc1ccccc1[As]=[As]c1ccccc1OC` (configuration not stated), the GI50 was 38.4 nM with LOX IMVI melanoma; 76.3 nM in the assay with NCI/ADR-RES ovarian; 62.7 nM in the assay on OVCAR-5 ovarian; 46.8 nM in the assay with SK-MEL-5 melanoma; 0.0401 µM with TK-10 renal; 62.2 nM in the assay on A498 renal. Also, the GI50 in the assay on HOP-62 NSCLC is 50 nM; in the assay on SR leukemia, 27.7 nM; with IGROV1 ovarian it was 41.4 nM; in the assay with NCI-H23 lung it was 65.3 nM. Moreover, the TGI in the assay on LOX IMVI melanoma was 0.136 µM; in the assay with NCI/ADR-RES ovarian, 0.306 µM; in the assay on OVCAR-5 ovarian, 0.181 µM; with SK-MEL-5 melanoma, 0.163 µM; in the assay on TK-10 renal, 0.141 µM; in the assay with A498 renal, 0.184 µM. The TGI with HOP-62 NSCLC was determined as 0.164 µM; in the assay on SR leukemia, 0.0707 µM; in the assay on IGROV1 ovarian, 0.209 µM; with NCI-H23 lung, 0.204 µM.
On to `Oc1ccc(C(O)(c2ccccc2)c2ccccc2)c2ccccc12`, for which the TGI with LOX IMVI melanoma was found to be 2.62 µM; in the assay on NCI/ADR-RES ovarian, 6.58 µM; with OVCAR-5 ovarian it was 5.96 µM; in the assay on SK-MEL-5 melanoma, 14.6 µM; in the assay with TK-10 renal, 8.73 µM; in the assay on HOP-62 NSCLC it was 7.16 µM. In addition, the TGI with SR leukemia worked out at 7.27 µM; in the assay on IGROV1 ovarian, 5.62 µM; in the assay on NCI-H23 lung, 11.8 µM.
With `CCC(=O)N1C/C(=C/c2ccc(Br)cc2)C(=O)/C(=C/c2ccc(Br)cc2)C1`, the GI50 with LOX IMVI melanoma was < 33.3 nM; with NCI/ADR-RES ovarian it was 1360 nM; in the assay on OVCAR-5 ovarian, 1320 nM; with SK-MEL-5 melanoma, 996 nM; with TK-10 renal it was 0.357 µM; in the assay on A498 renal, 1430 nM. Further, the figures for the GI50 in the assay with HOP-62 NSCLC, in the assay on IGROV1 ovarian and in the assay with NCI-H23 lung were 259 nM, 766 nM and 1310 nM, respectively. The TGI in the assay on LOX IMVI melanoma came out at 0.248 µM; in the assay with NCI/ADR-RES ovarian, 32.8 µM; in the assay on OVCAR-5 ovarian, 3.22 µM; in the assay on SK-MEL-5 melanoma, 2.45 µM; in the assay with TK-10 renal, 1.28 µM; with A498 renal, 3.06 µM. For the same compound, the TGI in the assay on HOP-62 NSCLC amounted to 0.829 µM; in the assay on SR leukemia it was 1.02 µM; in the assay with IGROV1 ovarian it was 2.27 µM; with NCI-H23 lung, 3.46 µM.
For the compound `CC(=O)Nc1ccc(S(=O)(=O)N=S(C)C)cc1`, the TGI in the assay on LOX IMVI melanoma, in the assay on NCI/ADR-RES ovarian, in the assay on OVCAR-5 ovarian, in the assay with TK-10 renal, with A498 renal and with HOP-62 NSCLC was > 100 µM throughout. Besides, the TGI in the assay with SR leukemia, in the assay with IGROV1 ovarian and with NCI-H23 lung was > 100 µM each time.
Consider `COc1cc([N+](=O)[O-])c(S(=O)(=O)O)cc1-n1nc(C(=O)Nc2ccccc2)n[n+]1-c1cc(S(=O)(=O)[O-])c([N+](=O)[O-])cc1OC`, for which the TGI in the assay with LOX IMVI melanoma, with NCI/ADR-RES ovarian, with OVCAR-5 ovarian, in the assay on SK-MEL-5 melanoma, in the assay on TK-10 renal and in the assay with HOP-62 NSCLC was > 100 µM in each case. The TGI in the assay with SR leukemia, with IGROV1 ovarian and in the assay with NCI-H23 lung was > 100 µM each time.
